Laboratory results: article PMC6018554, “2-[2-(4-(trifluoromethyl)phenylamino)thiazol-4-yl]acetic acid (Activator-3) is a potent activator of AMPK” (Scientific Reports, 2018)

Columns and labels:
[1] = target: T1, recombinant human AMPK α2β2γ2 (Homo sapiens, UniProt Q9UGJ0); set-up: method as in PMID 28705990; conditions: cited from earlier work
T1 construct: purchased SignalChem; host or cells: baculovirus expression

[2] = system: PFK1; assay: PFK activity assay kit; type: biochemical; conditions: AMP at 100 µM and 1 mM
[3] = target: T2, recombinant human AMPK α1β1γ1 (Homo sapiens, UniProt P54619); assay: In vitro AMP kinase assay (pACC ELISA), α1β1γ1; type: biochemical; conditions: AMP 1 µM to 300 µM with Activator-3 30 nM
T2 construct: purchased SignalChem P47-10H-05/P48-10H-05 (for all four isozymes together); host or cells: baculovirus expression
From the text: Having observed the effect of Activator-3 on the activation of AMPK in cell based assays, we next examined whether Activator-3 could activate AMPK directly or not. […] The activity of recombinant human AMPK (α1β1γ1, α2β1γ1, α2β2γ2 and α2β2γ3) in the presence of vehicle was considered as 100%. The EC50 of Activator-3 for the activation of α1β1γ1, α2β1γ1 and α2β2γ2 isozymes were similar. However, the activity of Activator-3 against α2β2γ3 was marginally higher (Fig. 1C).
(§1) A high binding Enzyme Immuno Assay (EIA) 96-well plate (Sigma: Cat# CLS3590) was coated with Acetyl CoA Carboxylase 2 (ACC: 175–271 amino acids) peptide, a direct substrate for AMPK, 100 ng per well (1:1000 ratio, Cat# 12–491, Upstate biotechnology) and incubated overnight at 25 °C. Reaction mixture was incubated at 30 °C for 2 h and reaction was stopped by washing the plate with 0.05% Tween 20 followed by incubation with pACC primary antibody and rabbit secondary antibody as described in cell based ELISA section. Assay buffer is composed of 10 mM DTT, 100 mM magnesium acetate, 50 μM ATP and 10 mM HEPES.

[4] = target: T3, human recombinant α1β1γ1 AMPK γ1 mutants (R70G, R152G) (Homo sapiens, UniProt P54619, R70G); assay: In vitro kinase assay with mutant AMPK pulled down from HEK-293T cells; type: biochemical; conditions: 100 µM AMP; γ1 R70G
T3 construct: SFB triple tag (Streptavidin, Flag and Biotin; SFB-pDEST); host or cells: HEK-293T, streptavidin-bead pull-down with biotin elution
Experimental: as §1
(§2) R70 and R152 residues in AMPK γ1 subunit (pDONR223-PRKAG1: purchased from addgene, cat# plasmid#23718) are mutated to glycine using overlapping extension PCR. Subsequently, the mutants were transferred into a triple tagged destination vector (Streptavidin, Flag and Biotin; SFB-pDEST) by using gateway cloning technology. The mutant DNA was transfected into HEK-293T cells using PEI following standard procedures. After 4 h of transfection, media was changed to DMEM containing 10% FBS. Cells were lysed in TENNS lysis buffer (20 mM Tris pH:8.0, 100 mM NaCl, 1 mM EDTA, 10 mM Na2H2P2O7, 10 mM NaF, 10 mM Na3VO4, 0.5% NP40) and subjected to pull down using streptavidin beads followed by biotin elution. To protect the protein from dephosphorylation, cells were treated with 500 μM AICAR prior to lysis. This purified protein was estimated by using nanodrop and taken for in vitro kinase assay to check whether Activator-3 is binding to the mutant AMPK or not, and the activity of the mutant protein was assessed by comparing with the wild type protein activity.

[5] = system: human recombinant α1β1γ1 AMPK γ1 mutants (R70G, R152G); assay: as above; type: biochemical; conditions: 100 µM AMP; γ1 mutants
Experimental: as §1, §2

T3 sequence (P54619 whole entry R70G): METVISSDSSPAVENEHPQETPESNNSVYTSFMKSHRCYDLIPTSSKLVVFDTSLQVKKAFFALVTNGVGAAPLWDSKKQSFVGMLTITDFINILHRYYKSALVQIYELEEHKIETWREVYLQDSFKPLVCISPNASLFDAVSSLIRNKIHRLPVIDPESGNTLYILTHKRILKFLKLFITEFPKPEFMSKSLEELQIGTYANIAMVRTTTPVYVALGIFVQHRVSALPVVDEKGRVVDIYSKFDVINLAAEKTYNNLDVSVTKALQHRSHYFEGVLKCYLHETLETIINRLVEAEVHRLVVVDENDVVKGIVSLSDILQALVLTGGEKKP
T3 sequence (Q13131 whole entry partner): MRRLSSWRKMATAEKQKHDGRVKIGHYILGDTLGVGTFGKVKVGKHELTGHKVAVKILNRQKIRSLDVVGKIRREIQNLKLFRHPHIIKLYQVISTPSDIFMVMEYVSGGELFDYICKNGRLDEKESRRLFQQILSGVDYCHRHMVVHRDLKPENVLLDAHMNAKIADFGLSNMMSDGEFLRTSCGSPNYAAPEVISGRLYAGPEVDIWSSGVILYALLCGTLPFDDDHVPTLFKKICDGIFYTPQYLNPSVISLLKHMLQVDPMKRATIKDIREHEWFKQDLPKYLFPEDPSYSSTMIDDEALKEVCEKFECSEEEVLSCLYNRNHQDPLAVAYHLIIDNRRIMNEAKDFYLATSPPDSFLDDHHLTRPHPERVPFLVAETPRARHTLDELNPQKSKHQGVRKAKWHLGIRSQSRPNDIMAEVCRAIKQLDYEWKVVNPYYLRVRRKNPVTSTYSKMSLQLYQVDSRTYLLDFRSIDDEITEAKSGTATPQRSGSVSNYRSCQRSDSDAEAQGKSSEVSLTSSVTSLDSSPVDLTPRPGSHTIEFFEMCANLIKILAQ
T3 sequence (Q9Y478 2-270 partner): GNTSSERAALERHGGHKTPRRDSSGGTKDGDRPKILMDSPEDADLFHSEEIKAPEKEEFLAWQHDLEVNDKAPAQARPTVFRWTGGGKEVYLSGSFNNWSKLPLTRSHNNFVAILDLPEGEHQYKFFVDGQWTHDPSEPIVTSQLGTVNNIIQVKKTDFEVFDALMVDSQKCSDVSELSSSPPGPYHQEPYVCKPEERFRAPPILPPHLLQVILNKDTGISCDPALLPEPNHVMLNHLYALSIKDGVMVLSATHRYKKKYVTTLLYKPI
T1 sequence (Q9UGJ0 whole entry): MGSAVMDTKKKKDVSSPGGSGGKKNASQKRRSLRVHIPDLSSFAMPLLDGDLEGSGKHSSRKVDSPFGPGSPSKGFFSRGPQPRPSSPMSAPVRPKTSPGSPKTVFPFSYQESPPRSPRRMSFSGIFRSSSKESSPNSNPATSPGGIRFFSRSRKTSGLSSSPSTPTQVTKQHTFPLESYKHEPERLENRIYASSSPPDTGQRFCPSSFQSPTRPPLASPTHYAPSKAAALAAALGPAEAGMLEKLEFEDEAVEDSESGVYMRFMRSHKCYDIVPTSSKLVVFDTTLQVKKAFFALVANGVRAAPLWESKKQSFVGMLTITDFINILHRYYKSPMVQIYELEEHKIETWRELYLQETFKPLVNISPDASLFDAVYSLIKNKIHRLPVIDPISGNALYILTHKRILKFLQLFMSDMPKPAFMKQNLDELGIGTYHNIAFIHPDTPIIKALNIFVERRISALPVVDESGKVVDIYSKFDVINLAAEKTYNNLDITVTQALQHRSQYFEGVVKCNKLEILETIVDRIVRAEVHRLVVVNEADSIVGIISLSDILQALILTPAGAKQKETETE
T1 sequence (P54646 whole entry partner): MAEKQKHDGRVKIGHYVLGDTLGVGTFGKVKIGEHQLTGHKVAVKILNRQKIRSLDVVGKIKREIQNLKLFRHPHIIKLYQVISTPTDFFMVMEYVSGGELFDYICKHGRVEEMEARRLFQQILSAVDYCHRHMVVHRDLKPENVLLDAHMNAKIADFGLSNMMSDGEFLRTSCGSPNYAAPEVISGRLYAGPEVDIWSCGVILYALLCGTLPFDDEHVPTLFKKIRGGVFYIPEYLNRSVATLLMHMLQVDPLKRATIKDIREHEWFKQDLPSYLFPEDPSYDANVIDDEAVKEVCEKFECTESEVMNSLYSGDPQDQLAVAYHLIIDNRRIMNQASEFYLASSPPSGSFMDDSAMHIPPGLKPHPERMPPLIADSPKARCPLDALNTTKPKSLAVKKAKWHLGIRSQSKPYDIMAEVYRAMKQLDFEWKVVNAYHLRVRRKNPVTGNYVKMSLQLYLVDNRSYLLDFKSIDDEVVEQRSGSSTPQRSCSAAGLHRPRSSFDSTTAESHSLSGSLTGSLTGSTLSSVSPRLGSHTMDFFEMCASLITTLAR
T1 sequence (O43741 whole entry partner): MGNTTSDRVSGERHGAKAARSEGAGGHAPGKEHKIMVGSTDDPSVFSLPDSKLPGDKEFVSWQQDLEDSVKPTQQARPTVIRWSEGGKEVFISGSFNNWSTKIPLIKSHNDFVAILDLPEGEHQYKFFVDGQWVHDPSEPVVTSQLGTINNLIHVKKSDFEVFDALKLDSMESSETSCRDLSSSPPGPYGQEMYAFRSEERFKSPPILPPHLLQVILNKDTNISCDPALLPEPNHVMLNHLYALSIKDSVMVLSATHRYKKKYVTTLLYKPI
T2 sequence (P54619 whole entry): as the sequence (P54619 whole entry R70G) above, with G70R counted along it
T2 sequence (Q13131 whole entry partner): as the sequence (Q13131 whole entry partner) above
T2 sequence (Q9Y478 whole entry partner): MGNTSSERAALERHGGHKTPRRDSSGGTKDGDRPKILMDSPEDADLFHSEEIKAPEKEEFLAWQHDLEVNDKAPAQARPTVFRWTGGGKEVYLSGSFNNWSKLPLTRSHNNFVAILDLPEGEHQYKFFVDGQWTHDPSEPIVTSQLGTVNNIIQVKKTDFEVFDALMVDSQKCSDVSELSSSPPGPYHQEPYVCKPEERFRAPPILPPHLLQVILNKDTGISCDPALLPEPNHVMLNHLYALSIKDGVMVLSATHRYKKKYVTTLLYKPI

Row | α1β1γ1 activity compared to 30 nM Activator-3 alone [3] | activation of AMPK, effect of R70G mutation [4] | Structure (SMILES) | Emax compared to basal activity [1] | effect on PFK1 activity [2] | AMPK activity of mutant proteins vs wild type [5]
1 | – | – | O[C@@H]1CO[C@H]2[C@@H]1OC[C@H]2Oc1nc2nc(-c3ccc(-c4ccccc4)cc3)c(Cl)cc2[nH]1 [MK-8722] | ~ 250% | – | –
2 | progressive enhancement | did not impact | Nc1ncnc2c1ncn2C1OC(COP(=O)(O)O)C(O)C1O (centres unmarked) [AMP, reference compound] | – | activated | significant reduction
